Results reported in patent US7834019B2, “Substituted pyrazolo[3,4-d]pyrimidinone derivatives” (Banyu Pharmaceutical Co., Ltd., priority 2006, dated 2010).

Tested on: Cdc2 (Cdk1) tyrosine 15-phosphorylation
Assay: Cdc2 (Cdk1) tyrosine 15-phosphorylation-inhibitory effect in NCI-H1299 cells + camptothecin (ELISA)
Assay type: cell-based
Details: Homo sapiens, camptothecin 200 nM for 16 hours, then test compound with nocodazole for 8 hours, read-out: Cdc2-Y15 Phosphorylation-Inhibitory Effect (H1299, + camptothecin) (EC50)
Source text: Pharmaceutical Text 2 (Method of Determining Drug Potency in Cells (Cdc2 (Cdk1) Tyrosine 15-Phosphorylation-Inhibitory Effect))
Fetal bovine serum (FBS) was obtained from Morgate; media RPMI1640 and DMEM were from Invitrogen; camptothecin was from Sigma; gemcitabine was from Nippon Eli Lilly; nocodazole and protease inhibitor cocktail were from Sigma; rabbit anti-Cdc2 antibody and mouse anti-Cdc2 antibody were from Santa Cruz Biotechnology; rabbit anti-tyrosine 15-phosphorylated Cdc2 antibody and horseradish peroxidase-labeled anti-mouse IgG antibody were from Cell Signaling Technology; sure blue reserve TMB peroxidase substrate was from Kirkegaard and Perry Laboratories. […]
In the method of using NCI-H1299 cells, the cells were suspended in RPMI1640 containing 10% FBS, and the cell suspension was applied to a 96-well Nunclondelta-processed plastic plate (bought from Nunc), in an amount of 2000 cells/100 μL/well, in which the cells were incubated overnight in 5% CO2-95% air at 37° C. […] Cdc2 was determined through ELISA as follows: A rabbit anti-Cdc2 antibody solution, which had been diluted 200-fold with 50 mM carbonate-bicarbonate buffer (pH 9.6), was applied to a 96-well maxisorpimmuno plate (bought from Nunc), in an amount of 50 μL/well, and statically kept overnight at 4° C. so as to fix the antibody on the plate. […]

- EC50: 68 nM
Structure (SMILES): C=CCn1c(=O)c2cnc(Nc3ccc(N4CCN(C)CC4)cc3)nc2n1-c1cccc(C(C)(C)O)n1 [Example 53, 2-allyl-1-[6-(1-hydroxy-1-methylethyl)pyridin-2-yl]-6-{[4-(4-methylpiperazin-1-yl)phenyl]amino}-1,2-dihydro-3H-pyrazolo[3,4-d]pyrimidin-3-one]
